# Legend:
# [1] = tested on: mice bearing the MAC16 tumor; experiment: Weight loss, food and water intake in mice bearing the MAC16 tumor; assay type: in vivo, NMRI mice; conditions: doses of HMB greater than 0.125 g/kg, p.o. by gavage daily
# Excerpt: This study evaluates the effect of HMB, in comparison with EPA or combination, on weight loss induced by the MAC16 tumor and the mechanisms involved. […] Pure strain male NMRI mice (average weight 25 g) were obtained from our own inbred colony and were transplanted with fragments of the MAC16 tumor s.c. into the flank by means of a trochar, selecting from donor animals with established weight loss as described in Bibby, M. C. et al. Characterization of a transplantable adenocarcinoma of the mouse colon producing cachexia in recipient animals. J. Natl. Cancer Inst., 78: 539-546, 1987. Transplanted animals were fed a rat and mouse breeding diet (Special Diet Services, Witham, United Kingdom) and water ad libitum, and weight loss was evident 10-12 days after tumor implantation. Animals just prior to the development of weight loss were randomized to receive daily either EPA (in olive oil), HMB (in PBS) or the combination as described in the figure legends administered p.o. by gavage, while control animals received either olive oil or PBS. EPA (98% as free acid) was purchased from Biomol Research Laboratories Inc., PA, USA. HMB (as the calcium salt) was obtained from Abbott Laboratories, Columbus, Ohio, USA. All groups contained a minimum of 6 mice. Tumor volume, body weight and food and water intake were monitored daily. […]
# [2] = tested on: gastrocnemius muscle of mice bearing the MAC16 tumor; experiment: Protein synthesis and degradation in gastrocnemius muscle of MAC16 mice; assay type: in vivo
# Protocol: Protein synthesis was measured by the incorporation of L-[4-3H]phenylalanine during a 2-hour period in which isolated gastrocnemius muscles were incubated at 37° C. in RPMI 1640 without phenol red and saturated with O2/CO2 (19:1). After incubation muscles were rinsed in nonradioactive medium, blotted dry, and homogenized in 4 mL 2% perchloric acid. The rate of protein synthesis was calculated by dividing the protein-bound radioactivity by the acid-soluble (unbound) material. For protein degradation assays animals from the same group as used to measure protein synthesis were given i.p. 0.4 mmol/L L-[4-3H]phenylalanine in PBS (100 μl) 24 hours prior to the assay. Isolated gastrocnemius muscles were extensively washed with PBS and RPMI 1640 before measuring the release of radioactivity into RPMI 1640 over a 2-hour period. The protein-bound activity was determined by homogenizing the muscles in 2% perchloric acid and determining the non-acid-soluble radioactivity (radioactivity in the precipitate). The rate of protein degradation was calculated by dividing the amount of [^3H]phenylalanine radioactivity released into the incubation medium during the 2-hour incubation period by the specific activity of protein-bound [^3H] phenylalanine.
# [3] = tested on: mice bearing the MAC16 tumor; experiment: Body composition analysis of mice bearing the MAC16 tumor; assay type: in vivo
# Excerpt: Materials and animals were obtained as per Example 1.
# [4] = tested on: soleus muscle of mice bearing the MAC16 tumor; experiment: Soleus muscle weight and protein degradation (tyrosine release) in MAC16 mice; assay type: in vivo, NMRI mice; conditions: EPA 0.6 g/kg, HMB 0.25 g/kg or the combination for 3 days
# Excerpt: Pure strain male NMRI mice (average weight 25 g) were obtained from our own inbred colony and were transplanted with fragments of the MAC16 tumor s.c. into the flank by means of a trochar, selecting from donor animals with established weight loss as described in Bibby, M. C. et al. Characterization of a transplantable adenocarcinoma of the mouse colon producing cachexia in recipient animals. J. Natl. Cancer Inst., 78: 539-546, 1987. Transplanted animals were fed a rat and mouse breeding diet (Special Diet Services, Witham, United Kingdom) and water ad libitum, and weight loss was evident 10-12 days after tumor implantation. Animals just prior to the development of weight loss were randomized to receive daily either EPA (in olive oil), HMB (in PBS) or the combination as described in the figure legends administered p.o. by gavage, while control animals received either olive oil or PBS. EPA (98% as free acid) was purchased from Biomol Research Laboratories Inc., PA, USA. HMB (as the calcium salt) was obtained from Abbott Laboratories, Columbus, Ohio, USA. All groups contained a minimum of 6 mice. Tumor volume, body weight and food and water intake were monitored daily. […] Protein degradation was determined by the release of tyrosine over a 2 h period as described in […]. et al. A fluorimetric method for the estimation of tyrosine in plasma and tissues. […]
# [5] = HMB 0.25 and 2.5 g/kg daily p.o., 3 days, vs PBS control
compound,measurement,setting,value
"CC(C)(O)CC(=O)O [HMB, beta-hydroxy-beta-methylbutyric acid]",weight loss,[1],significant reduction in weight loss
same,protein degradation in gastrocnemius muscle,[2]; [5],attenuated
same,protein synthesis in gastrocnemius muscle,[2]; [5],significantly increased
same,increase in the ratio of protein synthesis to protein degradation in muscle,[2]; HMB 0.25 g/kg,14 fold
same,increase in the ratio of protein synthesis to protein degradation in muscle,[2]; HMB 2.5 g/kg,32 fold
same,Fat (%),[3]; HMB 0.125 g/kg for 5 days,3.3 ± 1.6%
same,Nonfat (%),[3]; HMB 0.125 g/kg for 5 days,31.2 ± 1.5 %
same,Water (%),[3]; HMB 0.125 g/kg for 5 days,65.5 ± 0.9%
same,Fat (%),[3]; HMB 0.25 g/kg for 5 days,4.4 ± 1.3%
same,Nonfat (%),[3]; HMB 0.25 g/kg for 5 days,29.2 ± 1.9 %
same,Water (%),[3]; HMB 0.25 g/kg for 5 days,66.5 ± 2.2%
same,Fat (%),[3]; HMB 0.5 g/kg for 5 days,3.8 ± 1.2%
same,Nonfat (%),[3]; HMB 0.5 g/kg for 5 days,29.0 ± 1.4 %
same,Water (%),[3]; HMB 0.5 g/kg for 5 days,67.2 ± 2.3%
same,adipose tissue,"[3]; HMB for 5 days, in words",without an effect
same,nonfat carcass mass,"[3]; HMB for 5 days, in words",significant increase
same,tyrosine release (total protein degradation in soleus muscle),[4],as effective as EPA

# From US8609725B2, “Method of using beta-hydroxy-beta-methylbutyrate for reducing tumor growth rate” (Abbott Laboratories, priority 2004, dated 2013)
